Results from patent publication US11839641B2, “Methods and compositions for treatment of lysosomal storage disorders” (JME Group Associates Inc., priority 2020, dated 2023).

Tests used:
[1] = molecular target: T1, Barley GAA (high-isoelectric-point (pI) α-glucosidase) (Hordeum vulgare, UniProt Q43763); settings: cited from earlier work
T1 sequence (Q43763 24-877): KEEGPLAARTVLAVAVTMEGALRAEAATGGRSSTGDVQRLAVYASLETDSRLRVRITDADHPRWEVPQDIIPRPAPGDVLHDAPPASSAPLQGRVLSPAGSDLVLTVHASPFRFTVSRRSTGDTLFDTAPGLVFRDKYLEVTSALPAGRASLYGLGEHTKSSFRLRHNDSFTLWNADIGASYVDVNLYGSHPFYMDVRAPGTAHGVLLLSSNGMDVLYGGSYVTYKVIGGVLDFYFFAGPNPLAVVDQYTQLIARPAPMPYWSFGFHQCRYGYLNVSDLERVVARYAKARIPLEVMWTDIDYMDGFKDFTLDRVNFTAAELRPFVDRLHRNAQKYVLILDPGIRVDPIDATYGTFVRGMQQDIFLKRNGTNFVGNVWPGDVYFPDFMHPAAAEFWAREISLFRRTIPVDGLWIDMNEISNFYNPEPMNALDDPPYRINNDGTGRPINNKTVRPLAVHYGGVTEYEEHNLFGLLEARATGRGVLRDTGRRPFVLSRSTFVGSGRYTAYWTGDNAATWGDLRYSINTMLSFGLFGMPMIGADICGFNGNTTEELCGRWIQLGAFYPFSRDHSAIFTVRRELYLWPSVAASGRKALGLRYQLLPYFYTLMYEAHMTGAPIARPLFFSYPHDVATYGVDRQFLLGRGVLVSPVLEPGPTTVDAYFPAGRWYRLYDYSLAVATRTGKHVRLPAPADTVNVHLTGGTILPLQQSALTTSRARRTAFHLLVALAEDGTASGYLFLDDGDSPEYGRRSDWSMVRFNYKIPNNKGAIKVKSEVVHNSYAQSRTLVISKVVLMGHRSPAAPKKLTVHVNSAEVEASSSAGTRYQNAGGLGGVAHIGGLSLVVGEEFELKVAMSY

human white blood cells = test: Uptake of GGB crude lysate by human white blood cells; format: cell-based; settings: 18 hrs at 37° C.
Procedure: (§1) Uptake of a crude lysate of 7-8 day GGB by white blood cells (“WBC”) from humans and GAA KO mice was tested. Each treatment was performed±5 mM mannose-6 phosphate. Mannose-6 phosphate treatment blocks uptake by the M-6-P receptor (Martiniuk et al., “Further Studies of The Structure of Human Placental Acid Alpha-Glucosidase,” Arch Biochem Biophys 231:454-460 (1984); Martiniuk et al., “Production of a Functional Human Acid Maltase in Tobacco Seeds: Biochemical Analysis, Uptake by Human GSDII Cells, and in vivo Studies in GAA Knockout Mice,” Appl Biochem Biotechnol 171:916-926 (2013), each of which is hereby incorporated by reference in their entirety). Human placental GAA (hGAA) was used as a positive control. Anti-coagulate-EDTA was added at 1.5 to 2.0 mg/ml of whole blood. 0.15 ml of human and mouse KO blood was used and a 14×RBC lysing solution (NH4Cl (ammonium chloride)—8.02 g; NaHCO3 (sodium bicarbonate)—0.84 g; EDTA (disodium)—0.37 g to 100 ml with water) was added in a 1.5 ml microfuge tube, inverted for 10 minutes at RT until the liquid was clear red followed by spinning for 1 minute in a microfuge. The supernatant was decanted, cells were washed with phosphate buffered saline (PBS) and re-suspend in 2.4 ml complete DMEM-10% FBS (Life Technologies). […]

[2] = tested on: GAA KO mice white blood cells; test: Uptake of GGB crude lysate by GAA KO mouse white blood cells ± mannose-6-phosphate; format: cell-based; settings: 5 mM mannose-6-phosphate
Procedure: as §1

GAA KO mice = settings: cited from earlier work

For `C[C@H]1O[C@H](O[C@H]2[C@H](O)[C@@H](O)[C@@H](O[C@H]3[C@H](O)[C@@H](O)C(O)O[C@@H]3CO)O[C@@H]2CO)[C@H](O)[C@@H](O)[C@@H]1N[C@H]1C=C(CO)[C@@H](O)[C@H](O)[C@H]1O` (stereo partly drawn) [Acarbose], the Ki [1] is listed as 1500 nM.
In the case of “placental hGAA: Human placental GAA (hGAA) used as a positive control”, the “GAA/NAG ratio compared to mock treated cells” value (human white blood cells) is reported as “higher ratios of GAA/NAG” and the “uptake with mannose-6-phosphate” value [2] is reported as “blocked”.
In the case of rhGAA: recombinant human GAA, the Glycogen reduction (GAA KO mice; 20 mg/kg/wk for 5 mo., skeletal muscle) is listed as less than 50%, the “enzyme uptake by skeletal muscle compared to liver and heart” value (GAA KO mice; 20 mg/kg/wk for 5 mo.) is listed as “minimal” and the “glycogen clearance in skeletal muscle” value (GAA KO mice; 100 mg/kg/wk) is listed as roughly 75%.
